Our source for the EC50 and AC50 values is ChEMBL document CHEMBL1201862, “PubChem BioAssay data set” (2004).

Molecules are shown by their SMILES. Activity calls are given as the source filed them.

The target of assay [1] is T1, Heat shock factor protein 1 (Mus musculus, UniProt P38532).
T1 sequence (P38532 whole entry): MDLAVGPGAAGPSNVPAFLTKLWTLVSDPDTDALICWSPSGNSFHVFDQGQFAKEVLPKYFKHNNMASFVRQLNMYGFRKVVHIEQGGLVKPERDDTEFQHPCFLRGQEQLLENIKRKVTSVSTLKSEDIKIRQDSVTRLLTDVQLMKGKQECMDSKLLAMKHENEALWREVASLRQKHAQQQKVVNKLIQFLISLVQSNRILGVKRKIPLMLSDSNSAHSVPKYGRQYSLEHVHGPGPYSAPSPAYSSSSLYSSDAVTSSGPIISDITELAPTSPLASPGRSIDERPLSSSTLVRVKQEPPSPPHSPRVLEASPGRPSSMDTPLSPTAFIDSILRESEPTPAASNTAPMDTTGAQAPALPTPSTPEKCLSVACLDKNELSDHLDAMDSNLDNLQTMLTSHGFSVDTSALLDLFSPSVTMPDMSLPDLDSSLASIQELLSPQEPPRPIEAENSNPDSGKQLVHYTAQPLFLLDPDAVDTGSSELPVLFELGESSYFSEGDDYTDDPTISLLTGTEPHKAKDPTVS
As to the kind of experiment: inhibition of MG132-induced HSE-luciferase signal, confirmation, cell-based, NIH3T3, luminescence, dose retest (AID 2382).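 Also: NIH3T3 fibroblasts with HSF1-driven luciferase reporter stressed by proteasome inhibitor MG132; luminescence from HSF1-driven luciferase expression after 8 hours of MG132 stress.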 The class given is functional.

The subject of the next assay is Streptococcus. Kind of assay: Group A Streptococcus viability loss, dose response, counter-screen for streptokinase expression inhibitor project, luminescence, BacTiterGlo (AID 1915).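 Also: potency for reduction of bacterial viability or growth.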 The class given is functional, organism-based.
For assay [2], the system named is Streptococcus sp. 'group A'. Kind of assay: growth inhibition of control SK(-) GAS strain, dose response, counter-screen for streptokinase expression inhibitor project, luminescence, kanamycin, BacTiterGlo, confirmation (AID 1900). The class given is functional, organism-based. A general note: Counterscreens check selectivity or assay interference.
A further assay deals with T2, Streptokinase A (Streptococcus pyogenes serotype M1, UniProt P10520).
T2 sequence (P10520 whole entry): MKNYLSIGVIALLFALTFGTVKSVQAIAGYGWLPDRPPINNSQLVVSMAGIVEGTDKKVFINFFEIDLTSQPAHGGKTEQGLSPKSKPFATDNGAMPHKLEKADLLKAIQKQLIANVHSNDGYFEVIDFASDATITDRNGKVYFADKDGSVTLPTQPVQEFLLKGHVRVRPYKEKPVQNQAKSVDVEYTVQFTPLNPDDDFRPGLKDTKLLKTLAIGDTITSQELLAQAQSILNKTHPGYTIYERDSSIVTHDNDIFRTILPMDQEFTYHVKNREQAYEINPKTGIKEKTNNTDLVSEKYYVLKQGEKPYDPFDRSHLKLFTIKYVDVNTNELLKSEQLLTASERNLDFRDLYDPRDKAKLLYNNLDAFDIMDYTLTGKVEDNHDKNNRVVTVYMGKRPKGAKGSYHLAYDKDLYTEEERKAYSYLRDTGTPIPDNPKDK
Kind of assay: S. pyogenes streptokinase expression inhibitors, potency, dose response, plasminogen activation absorbance, OD405 (AID 1914).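 Also: secreted streptokinase activity via plasminogen activation per viability signal from cell pellet.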 The class given is functional, Streptococcus pyogenes M1 GAS.

The target of the next assay is Cytochrome P450 2C19 (Homo sapiens, UniProt P33261). As to the kind of experiment: Cytochrome panel assay with activity outcomes. Panel member name: p450-cyp2c19 Compounds with AC50 equal or less than 10 uM are considered active. It counts as functional. The conditions noted are these: read-out: AC50.
Chain of Cytochrome P450 2C19 (P33261 whole entry): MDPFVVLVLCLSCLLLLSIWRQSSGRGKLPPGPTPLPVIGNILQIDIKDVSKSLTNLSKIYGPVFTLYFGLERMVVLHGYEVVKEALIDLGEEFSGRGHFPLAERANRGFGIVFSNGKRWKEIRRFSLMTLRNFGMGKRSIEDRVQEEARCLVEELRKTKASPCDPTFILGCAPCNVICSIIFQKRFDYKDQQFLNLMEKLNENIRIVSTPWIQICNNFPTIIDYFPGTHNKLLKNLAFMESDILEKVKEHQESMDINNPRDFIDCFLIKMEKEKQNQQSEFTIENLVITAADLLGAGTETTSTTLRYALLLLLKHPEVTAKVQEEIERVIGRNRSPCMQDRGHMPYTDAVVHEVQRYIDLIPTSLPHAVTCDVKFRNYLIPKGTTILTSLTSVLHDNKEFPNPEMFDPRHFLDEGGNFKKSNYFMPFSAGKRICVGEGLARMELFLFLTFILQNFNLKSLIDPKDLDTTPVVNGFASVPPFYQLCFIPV
The target in another assay is Cytochrome P450 2C9 (Homo sapiens, UniProt P11712).
Chain of Cytochrome P450 2C9 (P11712 whole entry): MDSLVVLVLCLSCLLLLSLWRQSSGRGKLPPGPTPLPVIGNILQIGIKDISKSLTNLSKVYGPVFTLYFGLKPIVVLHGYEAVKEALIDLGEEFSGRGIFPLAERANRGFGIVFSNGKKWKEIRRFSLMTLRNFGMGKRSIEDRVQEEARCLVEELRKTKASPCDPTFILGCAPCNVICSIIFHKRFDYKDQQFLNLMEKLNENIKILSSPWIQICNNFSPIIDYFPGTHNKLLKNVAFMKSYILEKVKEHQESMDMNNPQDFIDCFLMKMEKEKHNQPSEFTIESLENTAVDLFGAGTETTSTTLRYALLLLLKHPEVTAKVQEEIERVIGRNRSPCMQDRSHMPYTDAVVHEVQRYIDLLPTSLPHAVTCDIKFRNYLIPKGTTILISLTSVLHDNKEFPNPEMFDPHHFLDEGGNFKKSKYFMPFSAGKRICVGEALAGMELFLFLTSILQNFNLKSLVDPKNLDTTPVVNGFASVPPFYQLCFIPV
A further assay has as its target T3, Cytochrome P450 1A2 (Homo sapiens, UniProt P05177).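 Also: PubChem cytochrome P450 panel assay, CYP1A2 panel member.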
T3 sequence (P05177 whole entry): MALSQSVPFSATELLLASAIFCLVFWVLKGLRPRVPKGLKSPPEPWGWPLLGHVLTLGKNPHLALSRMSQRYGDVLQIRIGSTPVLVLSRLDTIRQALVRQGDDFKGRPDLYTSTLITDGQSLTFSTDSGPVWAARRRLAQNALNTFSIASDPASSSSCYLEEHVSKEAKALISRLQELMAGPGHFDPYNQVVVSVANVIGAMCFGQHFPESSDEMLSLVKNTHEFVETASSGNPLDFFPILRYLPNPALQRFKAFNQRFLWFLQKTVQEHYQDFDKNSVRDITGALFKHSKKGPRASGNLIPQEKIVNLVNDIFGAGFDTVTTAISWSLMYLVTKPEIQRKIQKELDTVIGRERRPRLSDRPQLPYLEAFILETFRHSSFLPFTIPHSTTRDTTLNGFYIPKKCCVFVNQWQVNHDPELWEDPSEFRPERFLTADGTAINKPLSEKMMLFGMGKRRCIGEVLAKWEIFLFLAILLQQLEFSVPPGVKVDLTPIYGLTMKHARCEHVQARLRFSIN

As for `NCCCC[C@@H](C(=O)N1CCNCC1)n1cc([C@@H](N)CO)nn1`, the EC50 – broadly, the concentration at which the effect is half-maximal – in assay [1] is given as > 195 µM (not active). Take `Cc1nc2c(-c3ccccc3)c(C)nn2c(O)c1Cc1ccccc1`: the EC50 was 18.5 µM (active) with Streptococcus, 9.56 µM (active) in assay [2] and > 50 µM (not active) on Streptokinase A. `CCOC(=O)c1cccc(N2C(N)=NC(N)=NC2(C)C)c1`: the EC50 with Streptococcus is 0.63 µM (active); in assay [2] it was 0.127 µM (active).

As for `COC(=O)C1=C(C(=O)OC)[C@@H]2N(C)c3ccccc3[C@@]23C[C@@H](C(=O)OC)N(C(=O)CC(C)C)C3=N1`, in assay [1], the EC50 is > 195 µM (not active). The same measure, in the same setting: as for `Cc1c(C(=O)OCC(=O)N2CC(C)OC(C)C2)oc2ccc(Br)cc12` (stereo not given), the figure is > 195 µM (not active). Consider `Cc1ccc(-c2cn(-c3ccccc3)c(S)n2)cc1C`, for which the EC50 in assay [1] is recorded as > 195 µM (not active).

Turning to `COc1ccc(CN2C(=O)c3ccccc3C(/C=N\OCc3ccc(C)cc3)C2=O)cc1` (stereo not given), the results for the EC50 (in the assay with Streptococcus; in assay [2]; on Streptokinase A) were 11.2 µM (active), 1.67 µM (active) and > 150 µM (not active), respectively. As for `CCOC(=O)Cn1c(CN2CCN(c3cccc(Cl)c3)CC2)nc2c1c(=O)[nH]c(=O)n2C`, the EC50 in assay [1] is on record as > 195 µM (not active).

In the case of `C[C@H](CCC(=O)NCC(=O)O)[C@H]1CC[C@H]2[C@@H]3[C@H](O)C[C@@H]4C[C@H](O)CC[C@]4(C)[C@H]3C[C@H](O)[C@]12C` [GLYCOCHOLIC ACID], the EC50 (with Streptococcus; in assay [2]; at Streptokinase A) was > 150 µM (not active) in each case. In the case of `COc1cc2c3c(c1)/C(=C1/SC(=S)NC1=O)C(=O)N3C(C)(C)C=C2C`, the EC50 with Streptococcus was 8.28 µM (active); in assay [2] it was 2.63 µM (active); at Streptokinase A, 1.72 µM (active). Regarding `Cc1nn(C(C)C(=O)NC2C(=O)N3C(C(=O)O)=C(CSc4nnnn4C)CSC23)cc1Cl` (stereo not given), the EC50 is 0.337 µM (active) in the assay on Streptococcus and 0.112 µM (active) in assay [2]. In the case of `O=C(NCCC1CCCCN1S(=O)(=O)c1ccc(F)cc1)C(=O)Nc1ccccc1F` (stereo not given), the EC50 in assay [1] was > 195 µM (not active). Still for that read-out and setting: as for `COc1ccc(C=O)cc1Cn1ccnc1C`, the figure is > 195 µM (not active); as for `COc1ccccc1N1CC(C)C(=O)NC1=S` (stereo not given), > 195 µM (not active). As for `Fc1ccc2nc(Nc3nc4cc5c(cc4s3)OCO5)sc2c1`, the figures for the EC50 (in the assay with Streptococcus; in assay [2]) were 3.02 µM (active) and 7.04 µM (active), respectively.

As for `CCn1c(SCC(=O)Nc2oc(C)c3c(C)nnc(O)c23)nc2sc(C)c(C)c2c1=O`, the EC50 in assay [1] is given as > 195 µM (not active).

Take `Cc1cc(C)cc(NC(=O)N2CCN(Cc3ccc4c(c3)OCO4)CC2)c1`: the EC50 in assay [1] is > 195 µM (not active). As to `CC12CC(c3ccccc3O1)C(C(=O)NCc1ccccc1)C(=O)N2` (stereo not given), the EC50 in assay [1] is > 195 µM (not active). In the case of `Oc1ccccc1CNc1ccc(OC(F)(F)F)cc1`, the EC50 in assay [1] is on record as > 195 µM (not active). Regarding `CCOC(=O)N1CCN(C(=O)c2ccc3c(=O)n(CCC4=CCCCC4)c(=S)[nH]c3c2)CC1`, the EC50 in the assay with Streptococcus is > 150 µM (not active); at Streptokinase A it was 29.8 µM (active).

With `COCC(C)NC(=O)c1ccc2nc(-c3ccccc3)c(-c3ccccc3)nc2c1` (stereo not given), the EC50 in assay [1] is > 195 µM (not active).

Regarding `c1ccc2c(c1)CC1(CCCCC1)n1nnnc1-2`, the EC50 in assay [1] is on record as > 195 µM (not active). Still for that read-out and setting: as for `Cc1ccc(N(CC(=O)NCCSCc2ccco2)S(C)(=O)=O)cc1`, the figure is > 195 µM (not active); as for `c1ccc(-n2nnnc2Oc2ccc(-c3nnco3)cc2)cc1`, > 195 µM (not active); as for `CC(=O)c1cccc(NC(=O)CN2C(=O)c3ccccc3C2=O)c1`, > 195 µM (not active). For the molecule `O=C(Cn1cnc2c(oc3ccccc32)c1=O)NCc1ccco1`, the figures for the AC50 at Cytochrome P450 2C19, on Cytochrome P450 2C9 and at Cytochrome P450 1A2 were 20 µM (inconclusive), 8.91 µM (inconclusive) and 14.1 µM (inconclusive), respectively.
